Results on 37 molecules are retold here after patent US20250320227A1, “MACROCYCLIC OREXIN RECEPTOR AGONISTS AND USES THEREOF” (Jazz Pharmaceuticals Ireland Limited, priority 2022, published 2025).

Molecules are shown by their SMILES.

This test has as its target T1, human recombinant OX2 (hOX2) receptors expressed in CHO cells (Homo sapiens, UniProt O43614).
T1 construct: host or cells: CHO cells (hOX2-CHO)
T1 sequence (O43614 1-444): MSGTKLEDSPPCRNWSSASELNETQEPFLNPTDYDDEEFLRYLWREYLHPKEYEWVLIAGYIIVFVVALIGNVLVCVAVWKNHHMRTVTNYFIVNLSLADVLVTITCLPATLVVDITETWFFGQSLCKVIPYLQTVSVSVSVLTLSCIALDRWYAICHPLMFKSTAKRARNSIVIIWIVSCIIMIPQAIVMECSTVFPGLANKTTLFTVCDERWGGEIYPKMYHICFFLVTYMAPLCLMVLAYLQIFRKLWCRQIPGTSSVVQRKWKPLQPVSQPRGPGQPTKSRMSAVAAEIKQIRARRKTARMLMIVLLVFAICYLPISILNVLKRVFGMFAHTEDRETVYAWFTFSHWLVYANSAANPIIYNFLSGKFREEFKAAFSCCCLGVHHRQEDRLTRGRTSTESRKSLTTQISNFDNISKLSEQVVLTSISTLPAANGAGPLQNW
In words: IP-1 accumulation assay (IP-One HTRF) in hOX2-CHO cells. It is filed as cell-based. Particulars: 60 min incubation at 37° C., mean of at least two independent experiments, read-out: EC50_OX2R Category. Put shortly: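 IP-1 HTRF (665/615 ratio) after 60 min compound exposure at 37 °C, 11-point dilution, 0.5% DMSO, LiCl-containing HEPES-buffered HBSS pH 7.4. Response expressed as percent of maximal OX-A effect; EC50 by four-parameter logistic fit, averaged over at least two independent experiments in duplicate.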
For orientation: TR-FRET usually uses a lanthanide donor and a delayed reading to cut background.
Turning to `O=C1COC[C@@]2(CCCN3C(=O)COc4ncccc4[C@H]4CC[C@H](CC4)OC[C@H]32)N1` (single isomer, unassigned) [Example 45a], the EC50 was below 100 nM. For the molecule `O=C1COC[C@@]2(CCCN3C(=O)COc4nccc(F)c4[C@H]4CC[C@H](CC4)OC[C@H]32)N1` (single isomer, unassigned) [Example 46a], the EC50 is below 100 nM. Turning to `O=C1COC[C@]2(CCCN3C(=O)COc4nccc(F)c4[C@H]4CC[C@H](CC4)OC[C@@H]32)N1` (single isomer, unassigned) [Example 46b], the EC50 was in the range of 1000 to 10000 nM. For the molecule `Cc1cccc2c1[C@H]1CC[C@H](CC1)OC[C@@H]1N(CCC[C@@]13COCC(=O)N3)C(=O)CO2` (single isomer, unassigned) [Example 47a], the EC50 was below 100 nM.

Regarding `Cc1cccc2c1[C@H]1CC[C@H](CC1)OC[C@H]1N(CCC[C@]13COCC(=O)N3)C(=O)CO2` (single isomer, unassigned) [Example 47b], the EC50 is 1000 to 10000 nM. With `O=C1COC[C@@]2(CCCN3C(=O)CCOc4c(F)cccc4[C@H]4CC[C@H](CC4)OC[C@H]32)N1` (single isomer, unassigned) [Example 48a], the EC50 is below 100 nM. With `O=C1COC[C@]2(CCCN3C(=O)CCOc4c(F)cccc4[C@H]4CC[C@H](CC4)OC[C@@H]32)N1` (single isomer, unassigned) [Example 48b], the EC50 is below 100 nM. Regarding `O=C1COC[C@@]2(CCCN3C(=O)CCOc4ccc(F)cc4[C@H]4CC[C@H](CC4)OC[C@H]32)N1` (single isomer, unassigned) [Example 49a], the EC50 is below 100 nM. Turning to `O=C1COC[C@]2(CCCN3C(=O)CCOc4ccc(F)cc4[C@H]4CC[C@H](CC4)OC[C@@H]32)N1` (single isomer, unassigned) [Example 49b], the EC50 was below 100 nM.

With `O=C1COC[C@@]2(CCCN3C(=O)CCOc4c(F)cc(F)cc4[C@H]4CC[C@H](CC4)OC[C@H]32)N1` (single isomer, unassigned) [Example 50a], the EC50 was below 100 nM. For `O=C1COC[C@]2(CCCN3C(=O)CCOc4c(F)cc(F)cc4[C@H]4CC[C@H](CC4)OC[C@@H]32)N1` (single isomer, unassigned) [Example 50b], the EC50 was in the range of 100 to 1000 nM. Take `O=C1COC[C@@]2(CCCN3C(=O)OCCOc4cccc(c4)[C@H]4CC[C@H](CC4)OC[C@H]32)N1` (single isomer, unassigned) [Example 53a]: the EC50 was below 100 nM. Turning to `O=C1COC[C@]2(CCCN3C(=O)OCCOc4cccc(c4)[C@H]4CC[C@H](CC4)OC[C@@H]32)N1` (single isomer, unassigned) [Example 53b], the EC50 was above 10000 nM. In the case of `O=C1COC[C@@]2(CCCN3C(=O)OCCCOc4cccc(c4)[C@H]4CC[C@H](CC4)OC[C@H]32)N1` (single isomer, unassigned) [Example 54a], the EC50 is below 100 nM. Consider `O=C1COC[C@]2(CCCN3C(=O)OCCCOc4cccc(c4)[C@H]4CC[C@H](CC4)OC[C@@H]32)N1` (single isomer, unassigned) [Example 54b], for which the EC50 fell in the range of 1000 to 10000 nM. As to `O=C1N[C@]2(CCCN3C(=O)COc4ccccc4[C@H]4CC[C@H](CC4)OC[C@H]32)COC1F` (single isomer, unassigned) [Example 56a], the EC50 is below 100 nM.

On to `O=C1N[C@@]2(CCCN3C(=O)COc4ccccc4[C@H]4CC[C@H](CC4)OC[C@@H]32)COC1F` (single isomer, unassigned) [Example 56b], for which the EC50 is below 100 nM. As for `O=C1CCC[C@@]2(CCCN3C(=O)COc4ccccc4[C@H]4CC[C@H](CC4)OC[C@H]32)N1` (single isomer, unassigned) [Example 58a], the EC50 is below 100 nM.

Consider `O=C1CCC[C@]2(CCCN3C(=O)COc4ccccc4[C@H]4CC[C@H](CC4)OC[C@@H]32)N1` (single isomer, unassigned) [Example 58b], for which the EC50 was above 10000 nM. For `O=C1COc2ccccc2[C@H]2CC[C@H](CC2)OC[C@@H]2N1CCC[C@@]21CCCS(=O)(=O)N1` (single isomer, unassigned) [Example 59a], the EC50 was below 100 nM. For `O=C1COc2ccccc2[C@H]2CC[C@H](CC2)OC[C@H]2N1CCC[C@]21CCCS(=O)(=O)N1` (single isomer, unassigned) [Example 59b], the EC50 fell in the range of 1000 to 10000 nM. With `O=C1N[C@]2(CCCN3C(=O)COc4ccccc4[C@H]4CC[C@H](CC4)OC[C@H]32)CO1` (single isomer, unassigned) [Example 67a] the figure was below 100 nM; with `O=C1N[C@@]2(CCCN3C(=O)COc4ccccc4[C@H]4CC[C@H](CC4)OC[C@@H]32)CO1` (single isomer, unassigned) [Example 67b], above 10000 nM; with `O=C1CS[C@@]2(CCCN3C(=O)COc4ccccc4[C@H]4CC[C@H](CC4)OC[C@H]32)N1` (single isomer, unassigned) [Example 68a], 100 to 1000 nM.

Regarding `O=C1CS[C@]2(CCCN3C(=O)COc4ccccc4[C@H]4CC[C@H](CC4)OC[C@H]32)N1` (single isomer, unassigned) [Example 68b], the EC50 was above 10000 nM.

Regarding `O=C1COC[C@]2(CCCN3C(=O)C4(CC4)COc4cccc(F)c4[C@H]4CC[C@H](CC4)OC[C@@H]32)N1` (single isomer, unassigned) [Example 72a, (1′s,16′R,17′S,20′s)-3′-fluorodispiro [cyclopropane-1,10′-[8,19]dioxa-[12]azatetracyclo [18.2.2.0^2,^7.0^12,^17]tetracosane-16′,3″- morpholine]-2′,4′,6′-triene-5″,11′-dione], the EC50 is 1000 to 10000 nM. With `O=C1COC[C@@]2(CCCN3C(=O)C4(CC4)COc4cccc(F)c4[C@H]4CC[C@H](CC4)OC[C@H]32)N1` (single isomer, unassigned) [Example 72b, (1′s,16′S,17′R,20′s)-3′-fluorodispiro[cyclopropane-1,10′-[8,19]dioxa-[12]azatetracyclo [18.2.2.0^2,^7.0^12,^17]tetracosane-16′,3″- morpholine]-2′,4′,6′-triene-5″,11′-dione] the figure was below 100 nM; with `O=C1COC[C@]2(CCN3C(=O)C4(CC4)COc4cccc(F)c4[C@H]4CC[C@H](CC4)OC[C@@H]32)N1` (single isomer, unassigned) [Example 73a, (1′s,15′R,16′S,19′s)-3′-fluorodispiro [cyclopropane-1,10′-[8,18]dioxa-[12]azatetracyclo[17. 2.2.0^2,^7.0^12,^16]tricosane-15′,3″- morpholine]-2′,4′,6′-triene-5″,11′-dione], 1000 to 10000 nM; with `O=C1COC[C@@]2(CCN3C(=O)C4(CC4)COc4cccc(F)c4[C@H]4CC[C@H](CC4)OC[C@H]32)N1` (single isomer, unassigned) [Example 73b, (1′s,15′S,16′R,19′s)-3′-fluorodispiro [cyclopropane-1,10′-[8,18]dioxa-[12]azatetracyclo [17.2.2.0^2,^7.0^12,^16]tricosane-15′,3″- morpholine]-2′,4′,6′-triene-5″,11′-dione], above 10000 nM.

In the case of `CC1CC2(COCC(=O)N2)C2COC3CCC(CC3)c3ccncc3OCCC(=O)N12` (single isomer, unassigned) [Example 74], the EC50 is below 100 nM.

For `CC1CC2(COCC(=O)N2)C2COC3CCC(CC3)c3ccncc3OCCC(=O)N12` (single isomer, unassigned) [Example 75], the EC50 was above 10000 nM. As for `O=C1COC[C@]2(CCCN3C(=O)CCCCOc4cccc(n4)[C@H]4CC[C@H](CC4)OC[C@@H]32)N1` (single isomer, unassigned) [Example 76a], the EC50 was above 10000 nM. Consider `O=C1COC[C@@]2(CCCN3C(=O)CCCCOc4cccc(n4)[C@H]4CC[C@H](CC4)OC[C@H]32)N1` (single isomer, unassigned) [Example 76b], for which the EC50 is below 100 nM.

Turning to `CC1COc2ccccc2[C@H]2CC[C@H](CC2)OCC2N(CCC23COCC(=O)N3)C1=O` (stereo partly drawn) [Example 5, (1′s,3S,16′R,19′s)-10′-methyl-8′,18′-dioxa-12′-azaspiro[morpholine-3,15-′tetracyclo[17.2.2.0^2,70.0^12,16]tricosane]-2′(7′), 3′,5′-triene-5, 11′-dione], the EC50 is 100 to 1000 nM. The figure for `C[C@@H]1C[C@@]2(COCC(=O)N2)[C@@H]2CO[C@H]3CC[C@H](CC3)c3ccccc3OCC(=O)N12` [Example 12a, (1′s,3S,12′R,15′R,18′s)-12′-methyl-8′,17′-dioxa-11′-azaspiro[morpholine-3,14′-tetracyclo[16.2.2.0^2,70.0^11,15]docosane]-2′(7′),3′,5′-triene-5,10′-dione] is below 100 nM.

Turning to `C[C@@H]1C[C@]2(COCC(=O)N2)[C@H]2CO[C@H]3CC[C@H](CC3)c3ccccc3OCC(=O)N12` [Example 12b, (1′s,3R,12′R,15′S, 18′s)-12′-methyl-8′,17′-dioxa-11′-azaspiro[morpholine-3,14′-tetracyclo[16.2.2.0^2,70.0^11,15]docosane]-2′(7′),3′,5′-triene-5,10′-dione], the EC50 lay in the range of 100 to 1000 nM. As to `C[C@@H]1C[C@]2(COCC(=O)N2)[C@H]2CO[C@H]3CC[C@H](CC3)c3ccc(F)cc3OCC(=O)N12` [Example 19b, (1′s,3R,12′R,15′S, 18′s)-5′-fluoro-12′-methyl-8′,17′-dioxa-11′-azaspiro[morpholine-3,14′-tetracyclo [16.2.2.0^2,^7.0^11,^15]docosane]-2′,4′,6′-triene-5,10′-dione], the EC50 is above 10000 nM.
